From PMC7821381, “Multi-Targeted Anticancer Activity of Imidazolate Phosphane Gold(I) Compounds by Inhibition of DHFR and TrxR in Breast Cancer Cells” (Frontiers in Chemistry, 2021)

What was measured:
[1] = system: thioredoxin reductase (TrxR); details: MDA-MB231, 12 h treatment, 16 μM (maximum inhibition); control 3.01 ± 0.01
Protocol: The assay was performed as previously reported (Galassi et al., [2012]) in 0.2 M Na, K-phosphate buffer (pH 7.4) containing 2 mM EDTA. The assay contained 0.12 mM NADPH and different amounts of cell lysate. The reaction was initiated by the addition of 3 mM 5,5′-dithiobis (2-nitrobenzoic acid) (DTNB) and the increase of absorbance was monitored at 412 nm over 5 min at 25°C.
Fig. 4S. Effects of gold(I) compounds 5 and 6 on redox enzyme thioredoxine reductase in MDA-MB231 cancer cells. The cells were incubated for 12 hours with different amount of tested compounds 5 and 6. After incubation, cells were washed twice with PBS and lysed. TrxR activity was tested by measuring NADPH-dependent reduction of DTNB (Galassi et al, 2012).

calf thymus DNA (ct-DNA) = assay: UV-Vis absorption titration with ct-DNA; type: binding; details: as restated in the discussion
Protocol: Stock solutions of calf thymus DNA (ct-DNA) (Sigma–Aldrich) were prepared by dissolving the DNA powder overnight in 10 mM Tris–HCl pH 7.4, 10 mM NaCl and incubated under stirrer at 4°C for 12h. […] The concentration of the ct-DNA solution was determined by UV absorbance at 260 nm. The molar absorption coefficient at 260 nm, was taken as 6,600 M^−1 cm^−1 (Marmur, [1961]). Stock solutions of gold(I) complexes (compounds 5 and 6) were prepared in DMSO. Absorption titration experiments performed with fixed concentrations of the different gold(I) complexes (25 μM, in 10 mM Tris–HCl pH 7.4, 10 mM NaCl), gradually increasing the concentration of DNA. After addition of DNA to the compounds, the resulting solution was allowed to […] equilibrate at room temperature for 5 min. Then, the sample solution was scanned in the range 220–600 nm. For the different compounds the binding constant (Kb) was determined from the spectroscopic titration data using the following equation
[DNA]/(εa-εf)=[DNA]/(εb-εf)+1/Kb(εb-εf),Equation 1
where [DNA] is the concentration of DNA in base pairs, the apparent absorption coefficient (εa) was obtained by calculating Aobsd/[compound]. The terms εf and εb correspond to the extinction coefficient of free (unbound) and the fully bound compound, respectively. A plot of [DNA]/(εa-εf) vs. [DNA] will give a slope 1/(εb-εf) and an intercept 1/Kb(εb-εf). […]

Row | Substance | Specific enzymatic activity of TrxR [1] | binding constant with ct-DNA (calf thymus DNA (ct-DNA)) [mM⁻¹]
1 | 4,5-dichloro-imidazolate-1yl-gold(I)-(triphenylphosphane) [Compound 6] | 1.95 ± 0.06 (16 μM) mU/mg | 3.44
2 | 4,5-dicyano-imidazolate-1yl-gold(I)-(triphenylphosphane) [Compound 5] | 1.59 ± 0.03 (16 μM) mU/mg | 1.46
